Laboratory results taken from ChEMBL document CHEMBL1133061, “Synthesis of N-diisopropyl phosphoryl benzyltetrahydroisoquinoline, a new class of mitochondrial complexes I and III inhibitors” (Bioorg Med Chem Lett, 2000).

Molecular target: Mitochondrial complex I; NADH oxidoreductase (Bos taurus, UniProt P25708+P52505)
Test: Inhibitory concentration against NADH oxidase
Format: protein-complex assay

Chain of Mitochondrial complex I; NADH oxidoreductase (P25708 21-464 limits assumed, other chains not shown): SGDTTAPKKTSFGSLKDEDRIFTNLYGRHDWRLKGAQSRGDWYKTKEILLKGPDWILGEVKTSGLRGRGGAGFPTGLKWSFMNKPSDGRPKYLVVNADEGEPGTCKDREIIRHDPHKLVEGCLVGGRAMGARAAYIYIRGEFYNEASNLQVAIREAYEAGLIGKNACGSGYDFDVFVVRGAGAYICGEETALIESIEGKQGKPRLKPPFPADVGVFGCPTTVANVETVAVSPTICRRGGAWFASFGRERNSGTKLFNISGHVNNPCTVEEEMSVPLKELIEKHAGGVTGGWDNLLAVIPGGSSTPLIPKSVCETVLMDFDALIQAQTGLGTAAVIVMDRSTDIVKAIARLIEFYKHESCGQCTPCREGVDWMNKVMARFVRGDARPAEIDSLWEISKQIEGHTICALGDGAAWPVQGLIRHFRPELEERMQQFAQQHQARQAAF

Q: How did the IC50 turn out when COc1cc2c(cc1OCc1ccccc1)CCN(C)C2Cc1ccccc1 (centres undefined) was run?
A: Its IC50 is 2.7 µM.

Q: For COc1cc2c(cc1OCc1ccccc1)CCN=C2Cc1ccccc1, which IC50 is on record?
A: Its IC50 is 2.91 µM.

Q: How did the IC50 turn out when COc1cc2c(cc1OCc1ccccc1)CCN(P(=O)(OC(C)C)OC(C)C)C2Cc1ccccc1 (centres undefined) was run?
A: Its IC50 is 1.69 µM.

Q: COc1cc2c(cc1OCc1ccccc1)CCNC2Cc1ccccc1 (centres undefined) was tested. Which IC50 did it give?
A: Its IC50 is 3.88 µM.
